Consider 13 molecules from patent publication US12398154B2, “Azaquinazoline pan-KRas inhibitors” (Mirati Therapeutics, Inc., priority 2020, dated 2025).

Each structure is given as a SMILES string.

One assay addresses KRas G12V (Homo sapiens, UniProt P01116, G12V). Put plainly: biochemical.
Another assay concerns pERK in PSN1 cells. In words: Inhibition of KRas phosphorylation of ERK (Cisbio HTRF pERK assay). The conditions noted are these: Homo sapiens, PSN1, 3 h, read-out: Inhibition (HTRF IC50) of KRas-mediated Phosphorylation of ERK, PSN1. On the technique in general: TR-FRET usually uses a lanthanide donor and a delayed reading to cut background.
The next assay has as its target KRas G12D (Homo sapiens, UniProt P01116, G12D). In words: biochemical.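 Further: TR-FRET displacement binding assay on KRas, read after a one-hour incubation at room temperature, IC50 fitted from percent-of-control values.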
Another assay deals with KRas G12R (Homo sapiens, UniProt P01116, G12R). Put plainly: biochemical.
The subject of another assay is pERK in MKN1 cells. In words: Inhibition of KRas phosphorylation of ERK (Cisbio HTRF pERK assay). The conditions noted are these: Homo sapiens, MKN-1, 3 h, read-out: Inhibition (HTRF IC50) of KRas-mediated Phosphorylation of ERK, MKN1.
The subject of assay [1] is phospho-ERK in NCI-H727 (G12V) cells. Put plainly: Inhibition of KRas-mediated phosphorylation of ERK (in-cell western). Particulars: Homo sapiens, NCI-H727, 3 h, 3 hours compound, phospho-ERK normalized to GAPDH. Format: cell-based. On the procedure:
(§1) Diluted compounds were then added in a final concentration of 0.5% DMSO. After 3 hours, 50 μL of 4.0% formaldehyde was added and the plates incubated at room temperature for 20 minutes. The plates were then dumped and permeabilized with 150 μL of ice cold 100% methanol for 10 minutes.
(§2) The amount of phospho-ERK was determined using an antibody specific for the phosphorylated form of ERK and compared to the amount of GAPDH. […] The plates were incubated overnight at 4° C. The plates were washed 3× with 150 uL PBS+0.1% Tween 20.
(§3) The plates were washed 3× with 150 uL PBS+0.1% Tween 20. Plates were imaged dry on a Li-COR Odyssey CLX plate reader.
(§4) The phospho-ERK (Thr202/Tyr204) signal was normalized to the GAPDH signal for each well and percent of DMSO control values were calculated. IC50 values were generated using a 4-parameter fit of the dose response curve.

Assay [2] deals with phospho-ERK in NCI-H460 (Q61H) cells. The description is as above. Type of assay: cell-based. The conditions noted are these: Homo sapiens, NCI-H460, 3 h, 3 hours compound, phospho-ERK normalized to GAPDH. The protocol: as §1, §2, §3, §4
In assay [3] the test system is phospho-ERK in AsPC-1 (G12D) cells. Described as above. Type of assay: cell-based. Particulars: Homo sapiens, ASPC1, 3 h, 3 hours compound, phospho-ERK normalized to GAPDH. The protocol:
as §1, §2, §3, §4

KRas G12D, sequence (P01116 1-169 isoform P01116-2 G12D): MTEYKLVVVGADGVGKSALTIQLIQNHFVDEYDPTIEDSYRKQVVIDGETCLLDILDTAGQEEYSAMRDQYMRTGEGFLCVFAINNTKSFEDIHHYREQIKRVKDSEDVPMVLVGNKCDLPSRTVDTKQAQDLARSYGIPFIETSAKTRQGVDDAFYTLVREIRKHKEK
KRas G12R, sequence (P01116 1-169 isoform P01116-2 G12R): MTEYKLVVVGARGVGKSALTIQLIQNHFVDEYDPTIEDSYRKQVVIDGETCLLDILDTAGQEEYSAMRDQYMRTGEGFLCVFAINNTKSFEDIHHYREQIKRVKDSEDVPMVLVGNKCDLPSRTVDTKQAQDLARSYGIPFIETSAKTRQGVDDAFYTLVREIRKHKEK
KRas G12V, sequence (P01116 1-169 isoform P01116-2 G12V): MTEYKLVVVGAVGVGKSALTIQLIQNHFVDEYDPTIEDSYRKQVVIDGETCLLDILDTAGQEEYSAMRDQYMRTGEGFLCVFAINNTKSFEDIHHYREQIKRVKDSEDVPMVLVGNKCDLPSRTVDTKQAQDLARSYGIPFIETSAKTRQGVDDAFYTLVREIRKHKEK

Regarding `CCc1c(F)ccc2cc(O)cc(-c3ncc4c(Nc5cnn(-c6ccncc6)c5)nc(OC[C@@]56CCCN5C[C@H](F)C6)nc4c3F)c12` [Example 297, 5-ethyl-6-fluoro-4-(8-fluoro-2-(((2R,7aS)-2-fluorohexahydro-1H-pyrrolizin-7a-yl)methoxy)-4-((1-(pyridin-4-yl)-1H-pyrazol-4-yl)amino)pyrido[4,3-d]pyrimidin-7-yl)naphthalen-2-ol], the IC50 – broadly, the midpoint of a concentration-inhibition curve – against KRas G12V is no more than 0.002 µM; with pERK in PSN1 cells it was no less than 10 µM; against KRas G12D, 0.054 µM; at KRas G12R it was 0.009 µM; with pERK in MKN1 cells, 0.154 µM; in assay [1] it was 450 nM. In addition, the figures for the IC50 in assay [2] and in assay [3] were 660 nM and 3430 nM, respectively.
With `CCc1c(F)ccc2cc(O)cc(-c3ncc4c(N5CCC[C@]6(CNC(=O)C6)C5)nc(OC[C@]56CCCN5C[C@@H](O)C6)nc4c3F)c12` [Example 206], the IC50 against KRas G12V was no more than 0.002 µM; in the assay on pERK in PSN1 cells, no less than 10 µM; on KRas G12D, no more than 0.002 µM; against KRas G12R, no more than 0.002 µM; in the assay with pERK in MKN1 cells, 0.034 µM; in assay [1], 3330 nM. Besides, the IC50 was 3380 nM in assay [2] and 6960 nM in assay [3].
For `CCc1c(F)ccc2cc(O)cc(-c3ncc4c(NCc5n[nH]cc5C(N)=O)nc(OC[C@@]56CCCN5C[C@H](F)C6)nc4c3F)c12` [Example 162], the IC50 against KRas G12V is no more than 0.002 µM; with pERK in PSN1 cells it was no less than 10 µM; at KRas G12D, 0.031 µM; against KRas G12R, 0.003 µM; in the assay on pERK in MKN1 cells it was 0.187 µM; in assay [1], 4170 nM. For the same molecule, the IC50 worked out at 6770 nM in assay [2] and 4530 nM in assay [3].
On to `CCc1c(F)ccc2cc(O)cc(-c3ncc4c(NCc5ccc(=O)n(C)c5)nc(OC[C@@]56CCCN5C[C@H](F)C6)nc4c3F)c12` [Example 199], for which the IC50 was no more than 0.002 µM against KRas G12V; no less than 10 µM in the assay with pERK in PSN1 cells; 0.003 µM against KRas G12D; no more than 0.002 µM against KRas G12R; 0.007 µM in the assay with pERK in MKN1 cells; 798 nM in assay [1]. Moreover, the IC50 amounted to 314 nM in assay [2] and 1320 nM in assay [3].
`CCc1c(F)ccc2cc(O)cc(-c3ncc4c(N5C[C@H](O)C[C@@H](F)C5)nc(OC[C@@]56CCCN5C[C@H](F)C6)nc4c3F)c12` [Example 178]: the half-maximal inhibitory concentration (IC50) against KRas G12V was 0.007 µM; with pERK in PSN1 cells, no less than 10 µM; against KRas G12D, 0.018 µM; against KRas G12R, 0.014 µM; in the assay with pERK in MKN1 cells, 0.049 µM; in assay [1], 2110 nM. Moreover, the half-maximal inhibitory concentration (IC50) in assay [2] was 728 nM; in assay [3] it was 606 nM.
As to `CCc1c(F)ccc2cc(O)cc(-c3ncc4c(NCCc5c[nH]nn5)nc(OC[C@@]56CCCN5C[C@H](F)C6)nc4c3F)c12` [Example 169, 4-(4-((2-(1H-1,2,3-triazol-4-yl)ethyl)amino)-8-fluoro-2-(((2R,7aS)-2-fluorohexahydro-1H-pyrrolizin-7a-yl)methoxy)pyrido[4,3-d]pyrimidin-7-yl)-5-ethyl-6-fluoronaphthalen-2-ol], the IC50 was no more than 0.002 µM against KRas G12V; no less than 10 µM in the assay with pERK in PSN1 cells; 0.004 µM against KRas G12D; no more than 0.002 µM on KRas G12R; 0.1 µM with pERK in MKN1 cells; 1810 nM in assay [1]. Also, the IC50 in assay [2] was determined as 931 nM; in assay [3] it was 2890 nM.
`CCc1c(F)ccc2cc(O)cc(-c3ncc4c(N5C[C@H](C)C[C@@H](O)C5)nc(OC[C@@]56CCCN5C[C@H](F)C6)nc4c3F)c12` [Example 187]: the IC50 at KRas G12V is 0.005 µM; in the assay on pERK in PSN1 cells, no less than 10 µM; at KRas G12D, 0.012 µM; against KRas G12R it was 0.006 µM; with pERK in MKN1 cells, 0.038 µM; in assay [1], 550 nM. For the same molecule, the figures for the IC50 in assay [2] and in assay [3] were 133 nM and 470 nM, respectively.
Turning to `CCc1c(F)ccc2cc(O)cc(-c3ncc4c(N5CCC[C@@H](O)[C@@H]5C)nc(OC[C@@]56CCCN5C[C@H](F)C6)nc4c3F)c12` [Example 185], the IC50 came out at 0.009 µM against KRas G12V; 4.84 µM with pERK in PSN1 cells; 0.011 µM at KRas G12D; 0.009 µM on KRas G12R; 0.017 µM in the assay on pERK in MKN1 cells; 481 nM in assay [1]. The results for the IC50 in assay [2] and in assay [3] were 424 nM and 306 nM, respectively.
With `CCc1c(F)ccc2cc(O)cc(-c3ncc4c(N5CCC[C@@](C)(O)C5)nc(OC[C@@]56CCCN5[C@H](CO)CC6)nc4c3F)c12` [Example 304, (R)-1-(7-(8-ethyl-7-fluoro-3-hydroxynaphthalen-1-yl)-8-fluoro-2-(((3S,7aS)-3-(hydroxymethyl)hexahydro-1H-pyrrolizin-7a-yl)methoxy)pyrido[4,3-d]pyrimidin-4-yl)-3-methylpiperidin-3-ol], the IC50 against KRas G12V is no more than 0.002 µM; in the assay with pERK in PSN1 cells, no less than 10 µM; at KRas G12D it was no more than 0.002 µM; at KRas G12R it was no more than 0.002 µM; in the assay with pERK in MKN1 cells, 0.029 µM; in assay [1] it was 2580 nM. In addition, the IC50 in assay [2] turned out to be 804 nM; in assay [3], 1370 nM.
For `C#Cc1c(F)ccc2cc(O)cc(-c3ncc4c(N5CCOC[C@](C)(O)C5)nc(OC[C@@]56CCCN5C[C@H](F)C6)nc4c3F)c12` (single isomer, unassigned) [Example 386], the IC50 amounted to 0.005 µM at KRas G12V; 2.88 µM with pERK in PSN1 cells; 0.007 µM on KRas G12D; 0.006 µM at KRas G12R; 0.044 µM with pERK in MKN1 cells; 1020 nM in assay [1]. Also, the IC50 in assay [2] was 299 nM; in assay [3], 1180 nM.
As to `CCc1c(F)ccc2cc(O)cc(-c3ncc4c(NCc5ccc6nonc6c5)nc(OC[C@@]56CCCN5C[C@H](F)C6)nc4c3F)c12` [Example 175, 4-(4-((benzo[c][1,2,5]oxadiazol-5-ylmethyl)amino)-8-fluoro-2-(((2R,7aS)-2-fluorohexahydro-1H-pyrrolizin-7a-yl)methoxy)pyrido[4,3-d]pyrimidin-7-yl)-5-ethyl-6-fluoronaphthalen-2-ol], the IC50 against KRas G12V was no more than 0.002 µM; in the assay on pERK in PSN1 cells it was no less than 10 µM; on KRas G12D, 0.038 µM; at KRas G12R it was no more than 0.002 µM; with pERK in MKN1 cells it was 0.039 µM; in assay [1] it was 756 nM. Moreover, the IC50 was determined as 675 nM in assay [2] and 1720 nM in assay [3].
For `CCc1c(F)ccc2cc(O)cc(-c3ncc4c(N5CC(O)CC(F)(F)C5)nc(OC[C@@]56CCCN5C[C@H](F)C6)nc4c3F)c12` (stereo partly shown) [Example 190], the IC50 against KRas G12V was no more than 0.002 µM; in the assay with pERK in PSN1 cells, 4.99 µM; against KRas G12R, no more than 0.002 µM; in the assay on pERK in MKN1 cells, 0.011 µM; in assay [1] it was 272 nM; in assay [2], 62 nM. The same molecule showed an IC50 in assay [3] of 189 nM.
On to `CCc1c(F)ccc2cc(O)cc(-c3ncc4c(N5CC[C@H](F)[C@@H](O)C5)nc(OC[C@@]56CCCN5C[C@H](F)C6)nc4c3F)c12` [Example 179], for which the IC50 came out at 6.96 µM in the assay with pERK in PSN1 cells; 0.01 µM in the assay with pERK in MKN1 cells; 675 nM in assay [1]; 274 nM in assay [2]; 785 nM in assay [3].
